According to publication PMC13192270, “RhlR quorum-sensing receptor ligand sensitivity regulates the differential expression of phenazine genes in Pseudomonas aeruginosa” (Journal of Bacteriology, 2026):
Where a chain is given by its changes, count along the chain named.

Columns and labels:
Assay in all cases: E. coli prhlA-luxCDABE luciferase reporter assay
Format in all cases: cell-based, Escherichia coli
[1] = target: T1, RhlR (T58F) (Pseudomonas aeruginosa, UniProt P54292, T58F)
T1 construct: expressed in transfected cells; host or cells: E. coli carrying pBAD-A-rhlR mutant, pCS26-prhlA-luxCDABE and pACYC-pqsE or empty pACYC
T1 sequence (P54292 1-241 T58F): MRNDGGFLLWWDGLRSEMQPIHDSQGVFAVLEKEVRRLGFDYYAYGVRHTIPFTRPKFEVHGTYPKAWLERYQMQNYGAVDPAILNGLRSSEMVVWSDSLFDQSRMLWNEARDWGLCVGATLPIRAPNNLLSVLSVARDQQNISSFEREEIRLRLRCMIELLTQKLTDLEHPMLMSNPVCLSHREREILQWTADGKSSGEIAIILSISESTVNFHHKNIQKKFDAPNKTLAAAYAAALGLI
Excerpt: (§1) Previous analysis of the RhlR LBP focused on highly conserved residues that were known from other AHL-binding proteins to be important contacts for AHL molecules, particularly the lactone head group. We performed conservation analyses on 300 LuxR-type receptors to determine variable and moderately conserved residues in the LBP (Fig. 1B) and, in conjunction with our previously determined experimental structure of WT RhlR bound to the synthetic agonist mBTL, used for docking C4- and C6HSL. Based on our docking simulations, C4- and C6HSL occupy a similar position in the LBP as mBTL, a highly efficacious activator of RhlR (Fig. 1C; Fig. S1). We targeted residues A44, G46, T58, L69, Y72, D81, I84, W96, and W108 (Fig. 1B and C). These residues were selected because of their proximity to the acyl tail of C4HSL, as well as the differences in conservation that are observed at these sites. We used an E. coli luciferase reporter assay to monitor ligand-dependent activation of WT RhlR and RhlR variants. WT RhlR and RhlR variants were expressed under the control of an arabinose-inducible promoter (Fig. S2). Transcription was monitored by light production via the expression of the luxCDABE operon controlled by the RhlR-dependent promoter of rhlA. Binding of RhlR to the rhlA promoter is highly dependent on the C4HSL-RhlR interaction, based on ChIP-seq analyses performed in P. aeruginosa as well as previously published E. coli reporter systems ([34], [39]). After expressing WT RhlR and RhlR variants in the E. coli reporter system, we performed dose response assays using C4HSL to calculate the concentration of C4HSL required to activate the reporter system to 50% maximum levels (EC50 value; Table 1). As expected, transcription activation by WT RhlR increased with increased C4HSL levels, with an EC50 value of ~2 µM. We observed a range of responses. Figure 1C depicts the targeted residues, which are colored based on the effect of amino acid substitution.
(§2) RhlR requires the accessory-binding protein, PqsE, for maximal activity. To determine if PqsE expression altered the activation of RhlR variants, we assessed AHL-dependent RhlR activation of the prhlA-luxCDABE reporter in the presence of a third plasmid that constitutively expresses PqsE in E. coli. […] RhlR variants that were still active but with increased EC50 values for C4HSL could have their activity enhanced by PqsE. […] Thus, alterations to the LBP can diminish the additive effect of PqsE-dependent transcription, indicating a potential role of allosteric conformational changes dependent on ligand occupancy. […] RhlR variants at residues I84 and W108 could not be activated by C4HSL, and thus, light levels remained low at all concentrations that were tested. Unlike the aforementioned variants, RhlR I84M/W and RhlR W108F/Y were activated by the expression of PqsE (Fig. S4).
(§3) All E. coli strains in this study were grown overnight with shaking in 5 mL Luria-Bertani (LB) media supplemented with 100 µg/mL ampicillin, 50 µg/mL kanamycin, and 15 µg/mL tetracycline at 37°C overnight. Overnight cultures were diluted 1:100 into fresh media, grown at 37°C with shaking for 2 h until reaching OD600 = 0.4. Cultures were induced with a final concentration of 0.1% arabinose, and 198 μL of the induced culture was mixed with 2 μL of C4HSL dilutions in a clear-bottom, black-opaque 96-well plate (Corning) and grown at 37°C with shaking for 4 h. The C4HSL dilution series was performed 1:1 in dimethyl sulfoxide (DMSO) with a top final concentration of 10 μM. Luminescence and optical density were recorded using a Glomax (Promega) plate reader.

[2] = target: T2, RhlR (T58I) (Pseudomonas aeruginosa, UniProt P54292, T58I)
T2 construct: expressed in transfected cells; host or cells: E. coli carrying pBAD-A-rhlR mutant, pCS26-prhlA-luxCDABE and pACYC-pqsE or empty pACYC
T2 sequence (P54292 1-241 T58I): T1 sequence (P54292 1-241 T58F) with F58I
Excerpt: as §1, §2, §3

[3] = target: T3, RhlR (T58L) (Pseudomonas aeruginosa, UniProt P54292, T58L)
T3 construct: expressed in transfected cells; host or cells: E. coli carrying pBAD-A-rhlR mutant, pCS26-prhlA-luxCDABE and pACYC-pqsE or empty pACYC
T3 sequence (P54292 1-241 T58L): T1 sequence (P54292 1-241 T58F) with F58L
Excerpt: as §1, §2, §3

CCCC(=O)N[C@H]1CCOC1=O [C4HSL, N-butyryl-L-homoserine lactone]
EC50 ([1]; Vector (no pqsE)): 3210 nM
EC50 ([1]; pqsE co-expressed): 198 nM
EC50 ([2]; Vector (no pqsE)): 1820 nM
EC50 ([2]; pqsE co-expressed): 120 nM
EC50 ([3]; Vector (no pqsE)): 854 nM
EC50 ([3]; pqsE co-expressed): 99 nM
